From patent US8080657B2, “Compounds of reverse turn mimetics and the use thereof” (Choongwae Pharma Corporation, priority 2008, dated 2011)
Where two headings read alike, the source gives them in different places.

Tested on: Wnt signaling
Assay: TopFlash reporter gene bioassay in SW480 cells
Type: cell-based
Settings: read-out: RGA, IC50 (μM) TopF
[1] = Homo sapiens, SW480, TopFlash reporter gene assay, inhibition of Wnt signaling

Compound	IC50 [1]	other results
C=CCN1CC(=O)N2[C@@H](Cc3ccc(O)cc3)C(=O)N(Cc3ccc(F)c4scnc34)C[C@@H]2N1C(=O)NCc1ccc(Cl)c(Cl)c1 [compound 41]	0.63 ± 0.09 µM	–
C=CCN1CC(=O)N2[C@@H](Cc3ccc(O)cc3)C(=O)N(Cc3cccc(-c4cccc(C(N)=O)c4)c3)C[C@@H]2N1C(=O)NCc1ccccc1 [compound 60]	0.79 ± 0.1 µM	–
C=CCN1CC(=O)N2[C@@H](Cc3ccc(O)cc3)C(=O)N(Cc3cccc4c(C(C)=O)cn(S(=O)(=O)c5ccc(Cl)cc5)c34)C[C@@H]2N1C(=O)NCc1ccccc1 [compound 6]	0.18 ± 0.076 µM	–
C=CCN1CC(=O)N2[C@@H](Cc3ccc(O)cc3)C(=O)N(Cc3ccc(F)c4scnc34)C[C@@H]2N1C(=O)NCc1cccs1 [compound 171]	–	IC50 (TopFlash reporter gene assay, inhibition of Wnt signaling): 2.1 ± 0.34 µM
C=CCN1CC(=O)N2[C@@H](Cc3ccc(OCC(O)CO)cc3)C(=O)N(Cc3cccc4scnc34)C[C@@H]2N1C(=O)NCc1ccccc1 (stereo partly shown) [compound 222]	36.4 ± 2 µM	–
C=CCN1CC(=O)N2[C@@H](Cc3ccc(O)cc3)C(=O)N(Cc3cccc(C(=O)N4CCCCC4)c3)C[C@@H]2N1C(=O)NCc1ccccc1 [compound 114]	1.42 ± 0.51 µM	–
C=CCOc1c(CN2C[C@H]3N(C(=O)CN(CC=C)N3C(=O)NCc3ccccc3)[C@@H](Cc3ccc(O)cc3)C2=O)cccc1OC [compound 90]	–	IC50 (Homo sapiens, SW480): 1.03 ± 0.16 µM
C=CCN1CC(=O)N2[C@@H](Cc3ccc(O)cc3)C(=O)N(Cc3ccc(F)c4scnc34)C[C@@H]2N1C(=O)NCc1cccs1 [compound 107]	1.3 ± 0.2 µM	–
C=CCN1CC(=O)N2[C@@H](Cc3ccc(OP(=O)(O)O)cc3)C(=O)N(Cc3ccccc3N3CCCC3)C[C@@H]2N1C(=O)NCc1ccccc1 [compound 112]	–	IC50 (Homo sapiens, SW480): 1.41 ± 0.21 µM
C=CCN1CC(=O)N2[C@@H](Cc3ccc(O)cc3C)C(=O)N(Cc3ccc(F)cc3F)C[C@@H]2N1C(=O)NCc1ccccc1 [compound 196]	21.2 ± 2.15 µM	–
C=CCN1CC(=O)N2[C@@H](Cc3ccc(O)cc3)C(=O)N(Cc3cccc(C(=O)NC4CCCCC4)c3)C[C@@H]2N1C(=O)NCc1ccccc1 [compound 38]	0.61 ± 0.09 µM	–
C=CCN1CC(=O)N2[C@@H](Cc3ccc(O)cc3)C(=O)N(Cc3ccc(F)c4scnc34)C[C@@H]2N1C(=O)NCc1ccc(C#N)cc1 [compound 255]	7.17 ± 1.33 µM	–
C=CCN1CC(=O)N2[C@@H](Cc3ccc(O)cc3)C(=O)N(Cc3cccc(C(=O)NNC(=O)OC(C)(C)C)c3)C[C@@H]2N1C(=O)NCc1ccccc1 [compound 210]	3.57 ± 0.89 µM	–
C=CCN1CC(=O)N2[C@@H](Cc3ccc(OP(=O)(O)O)cc3)C(=O)N(Cc3csc4ccccc34)C[C@@H]2N1C(=O)NCc1ccccc1 [compound 35]	–	IC50 (Homo sapiens, SW480): 0.59 ± 0.066 µM
C=CCN1CC(=O)N2[C@@H](Cc3ccc(O)cc3)C(=O)N(Cc3ccc(OC)c(-c4cccnc4)c3)C[C@@H]2N1C(=O)NCc1ccccc1 [compound 208]	3.27 ± 0.8 µM	–
C=CCN1CC(=O)N2[C@@H](Cc3ccc(O)cc3)C(=O)N(Cc3ccc(N)c([N+](=O)[O-])c3)C[C@@H]2N1C(=O)NCc1ccccc1 [compound 254]	7.13 ± 1.35 µM	–

Compound	IC50 [1]	other results
C=CCN1CC(=O)N2[C@@H](Cc3ccc(O)cc3)C(=O)N(Cc3cccc4cc[nH]c34)C[C@@H]2N1C(=O)NCc1ccccn1 [compound 205]	–	IC50 (Homo sapiens, SW480): 3.14 ± 0.68 µM
C=CCN1CC(=O)N2[C@@H](Cc3ccc(O)cc3)C(=O)N(Cc3cccc(C(=O)NCCC4=CCCCC4)c3)C[C@@H]2N1C(=O)NCc1ccccc1 [compound 130]	1.66 ± 0.18 µM	–
C=CCN1CC(=O)N2[C@@H](Cc3ccc(O)cc3)C(=O)N(Cc3cccc(-c4ccc(S(C)(=O)=O)cc4)n3)C[C@@H]2N1C(=O)NCc1ccccc1 [compound 261]	8.48 ± 0.9 µM	–
C=CCN1CC(=O)N2[C@@H](Cc3ccc(O)cc3)C(=O)N(Cc3csc4cc(NCCC(C)(C)C)ccc34)C[C@@H]2N1C(=O)NCc1ccccc1 [compound 51]	0.72 ± 0.15 µM	–
C=CCN1CC(=O)N2[C@@H](Cc3ccc(OP(=O)(O)O)cc3)C(=O)N(Cc3csc4cc(N)ccc34)C[C@@H]2N1C(=O)NCc1ccccc1 [compound 24]	–	IC50 (Homo sapiens, SW480): 0.48 ± 0.11 µM
C=CCN1CC(=O)N2[C@@H](Cc3ccc(O)cc3)C(=O)N(Cc3cccc(OC)c3Oc3cccc(F)c3)C[C@@H]2N1C(=O)NCc1ccccc1 [compound 252]	7.05 ± 0.87 µM	–
C=CCN1CC(=O)N2[C@@H](Cc3ccc(O)cc3)C(=O)N(Cc3ccc(F)c(OCCN4CCOCC4)c3)C[C@@H]2N1C(=O)NCc1ccccc1 [compound 70]	0.9 ± 0.2 µM	–
C=CCN1CC(=O)N2[C@@H](Cc3ccc(O)cc3)C(=O)N(Cc3ccc4ccn(S(=O)(=O)c5ccc(C)cc5)c4c3)C[C@@H]2N1C(=O)NCc1ccccc1 [compound 174]	2.33 ± 0.64 µM	–
C=CCN1CC(=O)N2[C@@H](Cc3ccc(OP(=O)(O)O)cc3)C(=O)N(Cc3cccc(OCCN4CCOCC4)c3)C[C@@H]2N1C(=O)NCc1ccccc1 [compound 172]	–	IC50 (Homo sapiens, SW480): 2.21 ± 0.35 µM
C=CCN1CC(=O)N2[C@@H](Cc3ccc(O)cc3)C(=O)N(Cc3ccc(OC)c(OC)c3)C[C@@H]2N1C(=O)NCc1ccccc1 [compound 175]	2.36 ± 0.57 µM	–
C=CCN1CC(=O)N2[C@@H](Cc3ccc(O)cc3)C(=O)N(Cc3cccc4c3ncn4C(=O)CNC(=O)OC(C)(C)C)C[C@@H]2N1C(=O)NCc1ccccc1 [compound 99]	1.17 ± 0.27 µM	–
C=CCN1CC(=O)N2[C@@H](Cc3ccc(O)cc3)C(=O)N(Cc3cc(C(C)(C)C)cc(C(C)(C)C)c3)C[C@@H]2N1C(=O)NCc1ccccc1 [compound 163]	15.7 ± 1.87 µM	–
C=CCN1CC(=O)N2[C@@H](Cc3ccc(O)cc3)C(=O)N(Cc3cccc4c(C(=O)C5CC5)cn(S(=O)(=O)c5ccc(C)cc5)c34)C[C@@H]2N1C(=O)NCc1ccccc1 [compound 1]	0.081 ± 0.0086 µM	–
C=CCN1CC(=O)N2[C@@H](Cc3ccc(O)cc3)C(=O)N(Cc3ccc(C(C)(C)C)cc3)C[C@@H]2N1C(=O)NCc1ccccc1 [compound 236]	41.7 ± 4.2 µM	–
C=CCN1CC(=O)N2[C@@H](Cc3ccc(O)cc3)C(=O)N(Cc3ccc(OCCCC)cc3)C[C@@H]2N1C(=O)NCc1ccccc1 [compound 214]	3.72 ± 0.47 µM	–
C=CCN1CC(=O)N2[C@@H](Cc3ccc(O)cc3)C(=O)N(Cc3cccc(C(=O)NCCC)c3)C[C@@H]2N1C(=O)NCc1ccccc1 [compound 9]	–	IC50 (Homo sapiens, SW480): 0.3 ± 0.02 µM

More lines, main results first:

IC50 [1]	Compound	other results
1.56 ± 0.33 µM	C=CCN1CC(=O)N2[C@@H](Cc3ccc(O)cc3)C(=O)N(Cc3cccc4c3OC(F)(F)O4)C[C@@H]2N1C(=O)NCc1ccccc1 [compound 124]	–
0.73 ± 0.09 µM	C=CCN1CC(=O)N2[C@@H](Cc3ccc(O)cc3)C(=O)N(Cc3cccc(Br)c3)C[C@@H]2N1C(=O)NCc1ccccc1 [compound 52]	–
0.76 ± 0.12 µM	C=CCN1CC(=O)N2[C@@H](Cc3ccc(O)cc3)C(=O)N(Cc3cccc(NC=O)c3)C[C@@H]2N1C(=O)NCc1ccccc1 [compound 57]	–
40.7 ± 6.4 µM	C=CCN1CC(=O)N2[C@@H](Cc3ccc(O)c(Br)c3)C(=O)N(Cc3cccc4scnc34)C[C@@H]2N1C(=O)NCc1ccccc1 [compound 235]	–
0.45 ± 0.05 µM	C=CCN1CC(=O)N2[C@@H](Cc3ccc(O)cc3)C(=O)N(Cc3csc4ccc(F)cc34)C[C@@H]2N1C(=O)NCc1ccccc1 [compound 21]	–
0.9 ± 0.27 µM	C=CCN1CC(=O)N2[C@@H](Cc3ccc(O)cc3)C(=O)N(Cc3cccc(C(C)=O)c3)C[C@@H]2N1C(=O)NCc1ccccc1 [compound 73]	–
0.95 ± 0.21 µM	C=CCN1CC(=O)N2[C@@H](Cc3ccc(O)cc3)C(=O)N(Cc3cccc(OC)c3OCC3CC3)C[C@@H]2N1C(=O)NCc1ccccc1 [compound 79]	–
4.3 ± 0.67 µM	C=CCN1CC(=O)N2[C@@H](Cc3ccc(O)cc3)C(=O)N(Cc3cccc(NC(N)=O)c3)C[C@@H]2N1C(=O)NCc1ccccc1 [compound 225]	–
0.56 ± 0.44 µM	C=CCN1CC(=O)N2[C@@H](Cc3ccc(O)cc3)C(=O)N(Cc3cccc(-c4ccc(F)nc4)c3)C[C@@H]2N1C(=O)NCc1ccccc1 [compound 33]	–
0.8 ± 0.07 µM	C=CCN1CC(=O)N2C(Cc3ccc(O)cc3)C(=O)N(Cc3cccc(-c4ccccn4)c3)C[C@@H]2N1C(=O)NCc1ccccc1 (stereo partly shown) [compound 61]	–
0.9 ± 0.13 µM	C=CCN1CC(=O)N2[C@@H](Cc3ccc(O)cc3)C(=O)N(Cc3cccc(-c4ccsc4)c3)C[C@@H]2N1C(=O)NCc1ccccc1 [compound 72]	–
0.83 ± 0.22 µM	C=CCN1CC(=O)N2[C@@H](Cc3ccc(O)cc3)C(=O)N(Cc3cccc4cc[nH]c34)C[C@@H]2N1C(=O)NCc1ccccc1 [compound 65]	–
0.69 ± 0.15 µM	C=CCN1CC(=O)N2[C@@H](Cc3ccc(O)cc3)C(=O)N(Cc3cccc(C(=O)OC)c3)C[C@@H]2N1C(=O)NCc1ccccc1 [compound 46]	–
3.3 ± 0.58 µM	C=CCN1CC(=O)N2[C@@H](Cc3ccc(O)cc3)C(=O)N(Cc3cccc(-c4ncc[nH]4)c3)C[C@@H]2N1C(=O)NCc1ccccc1 [compound 209]	–
2.89 ± 0.5 µM	C=CCN1CC(=O)N2[C@@H](Cc3ccc(O)cc3)C(=O)N(Cc3cccc(C(=O)OCC)n3)C[C@@H]2N1C(=O)NCc1ccccc1 [compound 194]	–
0.098 ± 0.014 µM	C=CCN1CC(=O)N2[C@@H](Cc3ccc(O)cc3)C(=O)N(Cc3cccc4c(C(C)=O)c[nH]c34)C[C@@H]2N1C(=O)NCc1ccccc1 [compound 3]	–
1.89 ± 0.38 µM	C=CCN1CC(=O)N2[C@@H](Cc3ccc(O)cc3)C(=O)N(Cc3cccc(OC)c3OC3CCCC3)C[C@@H]2N1C(=O)NCc1ccccc1 [compound 139]	–
52.5 ± 0.32 µM	C=CCN1CC(=O)N2[C@@H](Cc3ccc(O)cc3)C(=O)N(Cc3cccc(C(=O)NC)c3)C[C@@H]2N1C(=O)NCc1ccccc1 [compound 183]	–
0.85 ± 0.089 µM	C=CCN1CC(=O)N2[C@@H](Cc3ccc(O)cc3)C(=O)N(Cc3cn(C)c4ccccc34)C[C@@H]2N1C(=O)NCc1ccccc1 [compound 67]	–
40.2 ± 5.7 µM	C=CCN1CC(=O)N2[C@@H](Cc3ccc(O)c(Cl)c3)C(=O)N(Cc3cccc4scnc34)C[C@@H]2N1C(=O)NCc1ccccc1 [compound 234]	–
0.71 ± 0.43 µM	C=CCN1CC(=O)N2[C@@H](Cc3ccc(O)cc3)C(=O)N(Cc3cccc4[nH]cnc34)C[C@@H]2N1C(=O)NCc1ccccc1 [compound 49]	–
12.2 ± 2.02 µM	C=CCN1CC(=O)N2[C@@H](Cc3ccc(O)cc3)C(=O)N(Cc3cccc(-c4ccc[nH]c4=O)c3)C[C@@H]2N1C(=O)NCc1ccccc1 [compound 156]	–
0.58 ± 0.132 µM	C=CCN1CC(=O)N2[C@@H](Cc3ccc(O)cc3)C(=O)N(Cc3cccc(-c4ccncc4)c3)C[C@@H]2N1C(=O)NCc1ccccc1 [compound 34]	–
